A word on the IC50: it is the concentration that inhibits the measured activity by half.

Structures are written as SMILES. Structures can show the parent of a compound that is named as a salt. Residues, ends and D or L forms follow the SMILES beside them. *: point of attachment. X1 = O=C(c1ccc(-c2c(C#Cc3ccc4ccccc4n3)nc3c(N4CCOCC4)ccnn23)cc1)*

This is an account of results in patent US9193736B2, “PDE 10a inhibitors for the treatment of type II diabetes” (Janssen Pharmaceutica, NV, priority 2013, dated 2015).

The target of this assay is Human recombinant PDE10A2 (Homo sapiens (Human), UniProt Q9Y233). The assay is described as follows: In vitro hPDE10a: human recombinant PDE10A2 scintillation proximity assay, IC50. It is filed as biochemical. To be noted: human recombinant PDE10A2, SPA, 60 nM cAMP; read-out: hPDE10a2 IC50. The method, then: Cells were harvested and the phosphodiesterase protein was purified by metal chelate chromatography on Ni-sepharose 6FF. The affinity of the compounds of Formula (I) for phophodiesterases (PDE) was measured by a scintillation proximity assay (SPA). PDE Yttrium Silicate SPA beads allow PDE activity to be measured by direct binding of the primary phosphate groups of non-cyclic AMP or GMP to the beads via a complex iron chelation mechanism. The amount of bound tritiated product ([^3H]-AMP) is measured by liquid scintillation counting. The compounds were dissolved and diluted in 100% DMSO in polystyrene plates to a concentration of 100-fold the final concentration in the assay. […] After incubation, the reaction was stopped with 20 μL of stop solution, consisting of PDE SPA beads (17.8 mg beads/mL in 18 mM zinc sulphate). […] To measure the low control, no enzyme was added to the reaction mixture. Data were calculated as the percentage of inhibition of total activity measured in the absence of test compound (% control). […] For compounds tested more than once, the data points were aggregated.
Chain of Human recombinant PDE10A2 (Q9Y233 267-1055): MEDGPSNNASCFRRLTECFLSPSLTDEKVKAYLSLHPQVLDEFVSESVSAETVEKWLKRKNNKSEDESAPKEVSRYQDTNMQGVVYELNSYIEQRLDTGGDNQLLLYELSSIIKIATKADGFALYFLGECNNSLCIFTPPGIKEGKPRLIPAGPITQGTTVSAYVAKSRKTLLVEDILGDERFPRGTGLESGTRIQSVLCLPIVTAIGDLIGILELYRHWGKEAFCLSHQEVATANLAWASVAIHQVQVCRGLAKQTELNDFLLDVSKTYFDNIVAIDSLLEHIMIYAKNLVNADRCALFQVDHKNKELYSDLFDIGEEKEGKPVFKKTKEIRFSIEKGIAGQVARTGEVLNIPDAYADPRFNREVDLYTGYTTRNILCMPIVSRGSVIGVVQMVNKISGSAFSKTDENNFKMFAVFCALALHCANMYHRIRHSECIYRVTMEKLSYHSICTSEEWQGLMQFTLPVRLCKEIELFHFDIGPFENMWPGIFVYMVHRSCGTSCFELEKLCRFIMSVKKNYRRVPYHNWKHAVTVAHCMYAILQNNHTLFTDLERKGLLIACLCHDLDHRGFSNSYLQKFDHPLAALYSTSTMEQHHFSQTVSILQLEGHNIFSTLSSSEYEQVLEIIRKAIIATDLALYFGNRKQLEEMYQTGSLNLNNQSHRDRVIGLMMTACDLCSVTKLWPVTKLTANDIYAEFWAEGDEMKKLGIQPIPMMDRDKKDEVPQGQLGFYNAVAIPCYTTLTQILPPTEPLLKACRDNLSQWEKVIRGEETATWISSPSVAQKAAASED
(Scintillation proximity formats need no separation of bound from free tracer.)
`CC(=O)c1ccc(-c2c(C#Cc3ccc4ccccc4n3)nc3c(N4CCOCC4)ccnn23)cc1` [Cpd 159, 1-(4-(8-Morpholino-2-(quinolin-2-ylethynyl)imidazo[1,2-b]pyridazin-3-yl)phenyl)ethanone]: the concentration for half-maximal inhibition (IC50) stood at 9 nM.

For the compound `CC(C)(C(=O)O)c1ccc(-c2c([C@H]3C[C@H](c4ccc5ccccc5n4)C3)nc3c(N4CCOCC4)ccnn23)cc1` [Cpd 171, 2-Methyl-2-(4-(8-morpholino-2-((1R,3R)-3-(quinolin-2-yl)cyclobutyl)imidazo[1,2-b]pyridazin-3-yl)phenyl)propanoic acid], the IC50 turned out to be 2 nM.

As for `O=c1[nH]nc(-c2ccc(-c3c(/C=C/c4ccc5ccccc5n4)nc4c(N5CCOCC5)ccnn34)cc2F)[nH]1` [Cpd 162, (E)-5-(2-Fluoro-4-(8-morpholino-2-(2-(quinolin-2-yl)vinyl)imidazo[1,2-b]pyridazin-3-yl)phenyl)-2H-1,2,4-triazol-3(4H)-one], the IC50 stood at 9 nM.

For `NC(=O)[C@@H](N)CCCCNC(=O)c1ccc(-c2c(C#Cc3ccc4ccccc4n3)nc3c(N4CCOCC4)ccnn23)cc1` [Cpd 180, (S)—N-(5,6-diamino-6-oxohexyl)-4-(8-morpholino-2-(quinolin-2-ylethynyl)imidazo[1,2-b]pyridazin-3-yl)benzamide], the IC50 was found to be 5 nM.

For the compound `C[C@H](N)C(=O)N[C@@H](CCCCNC(=O)c1ccc(-c2c(C#Cc3ccc4ccccc4n3)nc3c(N4CCOCC4)ccnn23)cc1)C(N)=O` [Cpd 179, N—((S)-6-amino-5-((S)-2-aminopropanamido)-6-oxohexyl)-4-(8-morpholino-2-(quinolin-2-ylethynyl)imidazo[1,2-b]pyridazin-3-yl)benzamide], the IC50 worked out at 5 nM.

On to `Cn1nc(-c2ccc(-c3c(/C=C/c4ccc5ccccc5n4)nc4c(N5CCOCC5)ccnn34)cc2F)[nH]c1=O` [Cpd 163, (E)-5-(2-Fluoro-4-(8-morpholino-2-(2-(quinolin-2-yl)vinyl)imidazo[1,2-b]pyridazin-3-yl)phenyl)-2-methyl-2H-1,2,4-triazol-3(4H)-one], for which the half-inhibitory concentration (IC50) was determined as 12 nM.

Take `O=C(O)CC1(c2ccc(-c3c([C@H]4C[C@H](c5ccc6ccccc6n5)C4)nc4c(N5CCOCC5)ccnn34)cc2)COC1` [Cpd 174, 2-(3-(4-(8-Morpholino-2-((1R,3R)-3-(quinolin-2-yl)cyclobutyl)imidazo[1,2-b]pyridazin-3-yl)phenyl)oxetan-3-yl)acetic acid]: the IC50 was determined as 1 nM.

Consider `O=C(O)c1ccc(-c2c([C@H]3C[C@@H](c4ccc5ccccc5n4)C3)nc3c(N4CCOCC4)ccnn23)cc1` [compound 167, 4-(8-Morpholino-2-((1s,3s)-3-(quinolin-2-yl)cyclobutyl)imidazo[1,2-b]pyridazin-3-yl)benzoic acid trifluoroacetic acid salt], for which the IC50 was 13 nM.

For the compound `CC(C)C[C@H](NC(=O)[C@H](C)N)C(=O)N[C@@H](C)C(=O)N[C@@H](CCCCNC(=O)c1ccc(-c2c(C#Cc3ccc4ccccc4n3)nc3c(N4CCOCC4)ccnn23)cc1)C(N)=O` [Cpd 178, N—((S)-6-amino-5-((S)-2-((S)-2-((S)-2-aminopropanamido)-4-methylpentanamido)propanamido)-6-oxohexyl)-4-(8-morpholino-2-(quinolin-2-ylethynyl)imidazo[1,2-b]pyridazin-3-yl)benzamide] (H-ALAK(X1)-NH2), the IC50 is 11 nM.

Consider `O=C(O)[C@H]1C[C@@H]1c1ccc(-c2c([C@H]3C[C@H](c4ccc5ccccc5n4)C3)nc3c(N4CCOCC4)ccnn23)cc1` [Cpd 170, (1R,2S)-2-(4-(8-Morpholino-2-((1R,3S)-3-(quinolin-2-yl)cyclobutyl)imidazo[1,2-b]pyridazin-3-yl)phenyl)cyclopropanecarboxylic acid], for which the IC50 was found to be 1 nM.

For the compound `O=c1ncn(-c2ccc(-c3c(/C=C/c4ccc5ccccc5n4)nc4c(N5CCOCC5)ccnn34)cc2F)[nH]1` [Cpd 158, (E)-1-(2-Fluoro-4-(8-morpholino-2-(2-(quinolin-2-yl)vinyl)imidazo[1,2-b]pyridazin-3-yl)phenyl)-1,2-dihydro-1,2,4-triazol-3-one], the IC50 came to 5 nM.

In the case of `O=C(O)C1CCN(c2ccc(-c3c([C@H]4C[C@@H](c5ccc6ccccc6n5)C4)nc4c(N5CCOCC5)ccnn34)cc2)CC1` [compound 166, 1-(4-(8-Morpholino-2-((1s,3s)-3-(quinolin-2-yl)cyclobutyl)imidazo[1,2-b]pyridazin-3-yl)phenyl)piperidine-4-carboxylic acid], the IC50 came out at 93 nM.

Consider `O=C(O)c1ccc(-c2c(/C=C/c3ccc4c(n3)CCCC4)nc3c(N4CCOCC4)ccnn23)cn1` [Cpd 107, (E)-5-(8-morpholino-2-(2-(5,6,7,8-tetrahydroquinolin-2-yl)vinyl)imidazo[1,2-b]pyridazin-3-yl)picolinic acid trifluoroacetic acid salt], for which the IC50 was 12 nM.

As to `O=C(O)c1ccc(-c2c([C@@H]3C[C@@H]3c3ccc4ccccc4n3)nc3c(N4CCOCC4)cc(Cl)nn23)cc1F` [Cpd 165, 4-(6-Chloro-8-morpholino-2-((1R,2S)-2-(quinolin-2-yl)cyclopropyl)imidazo[1,2-b]pyridazin-3-yl)-2-fluorobenzoic acid trifluoroacetic acid salt], the IC50 came out at 12 nM.

`c1ccc2nc(C3CC3c3cn4nccc(N5CCOCC5)c4n3)ccc2c1` (stereo not drawn) [Cpd 161, 2-[2-(8-Morpholin-4-ylimidazo[1,2-b]pyridazin-2-yl)cyclopropyl]quinoline]: the 50% inhibitory concentration (IC50) came to 4 nM.

As for `CC(C)(CC(=O)O)c1ccc(-c2c([C@H]3C[C@H](c4ccc5ccccc5n4)C3)nc3c(N4CCOCC4)ccnn23)cc1` [Cpd 172, 3-Methyl-3-{4-[8-morpholin-4-yl-2-(trans-3-quinolin-2-ylcyclobutyl)imidazo[1,2-b]pyridazin-3-yl]phenyl}butanoic acid], the IC50 was determined as 1 nM.

In the case of `NCC(=O)N[C@@H](CCCCNC(=O)c1ccc(-c2c(C#Cc3ccc4ccccc4n3)nc3c(N4CCOCC4)ccnn23)cc1)C(N)=O` [Cpd 181, (S)—N-(6-amino-5-(2-aminoacetamido)-6-oxohexyl)-4-(8-morpholino-2-(quinolin-2-ylethynyl)imidazo[1,2-b]pyridazin-3-yl)benzamide], the IC50 was 6 nM.

In the case of `O=C(O)c1ccc(-c2c([C@H]3C[C@H](c4ccc5ccccc5n4)C3)nc3c(N4CCOCC4)cc(Cl)nn23)cc1` [compound 160, 4-(6-Chloro-8-morpholino-2-((1r,3r)-3-(quinolin-2-yl)cyclobutyl)imidazo[1,2-b]pyridazin-3-yl)benzoic acid trifluoroacetic acid salt], the IC50 is 1 nM.
